{
  "source": "paper PMC10150366",
  "about": "“Discovery of an In Vivo Chemical Probe for BCL6 Inhibition by Optimization of Tricyclic Quinolinones” (Journal of Medicinal Chemistry, 2023)",
  "key": {"CHRM1": {"biological_target": "T1, CHRM1 (Homo sapiens, UniProt P11229)", "T1 sequence (P11229 1-460)": "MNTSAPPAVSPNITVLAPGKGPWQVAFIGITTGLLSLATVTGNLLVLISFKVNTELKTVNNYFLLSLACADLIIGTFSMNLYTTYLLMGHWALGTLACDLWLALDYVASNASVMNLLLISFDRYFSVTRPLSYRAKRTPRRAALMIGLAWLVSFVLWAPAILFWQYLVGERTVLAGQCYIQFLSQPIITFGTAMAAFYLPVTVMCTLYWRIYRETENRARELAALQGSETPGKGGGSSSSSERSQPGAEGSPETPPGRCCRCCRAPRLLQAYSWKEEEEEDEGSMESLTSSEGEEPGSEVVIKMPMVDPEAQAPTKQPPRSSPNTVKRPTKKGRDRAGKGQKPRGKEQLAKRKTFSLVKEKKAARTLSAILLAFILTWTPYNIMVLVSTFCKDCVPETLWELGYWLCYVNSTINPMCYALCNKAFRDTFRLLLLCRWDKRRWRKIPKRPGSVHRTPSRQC", "experiment": "SAFETYscan Calcium Flux CHRM1 Agonist", "format": "cell-based", "source_text": "(§1) Supplement jm3c00155_si_002.xlsx, sheet \"SAFETYScan\" | column: RC50 (uM); Max Response"}, "HTR1B": {"biological_target": "HTR1B (Homo sapiens, UniProt P28222)", "sequence (P28222 whole entry)": "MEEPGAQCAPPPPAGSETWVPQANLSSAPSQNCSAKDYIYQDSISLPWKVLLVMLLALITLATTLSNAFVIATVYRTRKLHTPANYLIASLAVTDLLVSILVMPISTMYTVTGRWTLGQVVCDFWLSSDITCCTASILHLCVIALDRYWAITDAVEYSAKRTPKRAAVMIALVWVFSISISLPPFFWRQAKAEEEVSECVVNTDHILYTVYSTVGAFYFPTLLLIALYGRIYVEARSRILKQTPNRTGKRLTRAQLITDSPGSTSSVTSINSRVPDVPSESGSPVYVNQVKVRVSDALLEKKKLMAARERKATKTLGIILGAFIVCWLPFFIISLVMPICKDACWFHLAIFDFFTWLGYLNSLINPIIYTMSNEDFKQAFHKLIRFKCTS", "experiment": "SAFETYscan cAMP HTR1B Agonist", "format": "cell-based", "source_text": "Supplement jm3c00155_si_002.xlsx, sheet \"SAFETYScan\" | column: RC50 (uM); Hill; Max Response"}, "HTR2A [1]": {"biological_target": "T2, HTR2A (Homo sapiens, UniProt P28223)", "T2 sequence (P28223 whole entry)": "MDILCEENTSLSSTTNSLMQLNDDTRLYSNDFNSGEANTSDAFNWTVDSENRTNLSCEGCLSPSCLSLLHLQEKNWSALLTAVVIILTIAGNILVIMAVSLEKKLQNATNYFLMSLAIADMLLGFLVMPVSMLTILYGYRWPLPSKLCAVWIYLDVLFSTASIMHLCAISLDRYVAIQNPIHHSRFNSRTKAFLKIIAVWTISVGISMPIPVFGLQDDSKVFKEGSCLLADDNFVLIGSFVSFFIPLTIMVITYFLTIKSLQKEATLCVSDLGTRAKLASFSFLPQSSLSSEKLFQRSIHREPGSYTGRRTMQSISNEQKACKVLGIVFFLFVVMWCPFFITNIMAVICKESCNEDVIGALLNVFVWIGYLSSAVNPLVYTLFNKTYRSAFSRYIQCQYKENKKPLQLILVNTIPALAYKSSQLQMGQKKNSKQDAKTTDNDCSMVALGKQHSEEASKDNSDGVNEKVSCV", "experiment": "SAFETYscan Calcium Flux HTR2A Agonist", "format": "cell-based", "source_text": "as §1"}, "HTR2A [2]": {"biological_target": "T2, HTR2A", "experiment": "SAFETYscan Calcium Flux HTR2A Antagonist", "format": "cell-based", "source_text": "as §1"}, "VEGFR2": {"biological_target": "VEGFR2 (Homo sapiens, UniProt P35968)", "sequence (P35968 20-1356)": "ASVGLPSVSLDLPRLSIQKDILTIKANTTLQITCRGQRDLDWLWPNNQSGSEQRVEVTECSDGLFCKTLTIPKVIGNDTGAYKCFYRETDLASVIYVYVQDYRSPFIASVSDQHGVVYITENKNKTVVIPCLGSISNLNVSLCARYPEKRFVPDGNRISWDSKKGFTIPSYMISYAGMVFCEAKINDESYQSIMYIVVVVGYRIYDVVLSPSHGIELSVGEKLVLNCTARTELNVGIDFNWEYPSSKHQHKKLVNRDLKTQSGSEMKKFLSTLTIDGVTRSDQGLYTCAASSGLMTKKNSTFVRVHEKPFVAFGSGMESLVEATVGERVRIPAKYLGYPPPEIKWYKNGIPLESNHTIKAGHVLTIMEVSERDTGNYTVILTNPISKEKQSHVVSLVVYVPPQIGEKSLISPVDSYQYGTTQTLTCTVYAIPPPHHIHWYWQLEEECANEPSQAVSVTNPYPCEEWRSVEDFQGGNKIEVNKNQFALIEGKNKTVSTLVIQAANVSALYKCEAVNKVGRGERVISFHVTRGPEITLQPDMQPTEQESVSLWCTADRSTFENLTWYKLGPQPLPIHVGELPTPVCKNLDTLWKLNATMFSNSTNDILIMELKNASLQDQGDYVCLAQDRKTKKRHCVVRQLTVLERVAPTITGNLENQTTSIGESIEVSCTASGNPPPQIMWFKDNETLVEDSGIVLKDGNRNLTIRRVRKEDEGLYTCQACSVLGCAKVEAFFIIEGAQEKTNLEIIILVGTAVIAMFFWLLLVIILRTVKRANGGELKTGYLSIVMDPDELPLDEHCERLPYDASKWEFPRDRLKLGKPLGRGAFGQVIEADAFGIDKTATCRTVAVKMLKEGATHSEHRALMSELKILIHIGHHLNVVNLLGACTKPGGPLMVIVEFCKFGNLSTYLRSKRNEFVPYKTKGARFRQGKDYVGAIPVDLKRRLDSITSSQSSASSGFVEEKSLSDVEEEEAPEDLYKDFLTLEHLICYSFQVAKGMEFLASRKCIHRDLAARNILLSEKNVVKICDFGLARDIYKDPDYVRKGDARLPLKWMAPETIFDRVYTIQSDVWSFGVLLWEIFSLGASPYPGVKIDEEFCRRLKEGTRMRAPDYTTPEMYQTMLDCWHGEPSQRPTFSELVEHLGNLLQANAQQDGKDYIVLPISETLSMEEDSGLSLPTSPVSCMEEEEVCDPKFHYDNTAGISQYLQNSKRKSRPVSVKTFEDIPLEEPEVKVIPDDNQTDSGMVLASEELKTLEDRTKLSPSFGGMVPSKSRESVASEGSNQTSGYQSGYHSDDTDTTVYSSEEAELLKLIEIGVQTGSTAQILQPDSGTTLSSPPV", "experiment": "SAFETYscan Kinases Binding VEGFR2 Inhibitor", "source_text": "as §1"}, "NMDAR (1A/2B)": {"biological_target": "NMDAR (1A/2B) (Homo sapiens, UniProt Q05586+Q13224)", "sequence (Q13224 27-1484, other chains not shown)": "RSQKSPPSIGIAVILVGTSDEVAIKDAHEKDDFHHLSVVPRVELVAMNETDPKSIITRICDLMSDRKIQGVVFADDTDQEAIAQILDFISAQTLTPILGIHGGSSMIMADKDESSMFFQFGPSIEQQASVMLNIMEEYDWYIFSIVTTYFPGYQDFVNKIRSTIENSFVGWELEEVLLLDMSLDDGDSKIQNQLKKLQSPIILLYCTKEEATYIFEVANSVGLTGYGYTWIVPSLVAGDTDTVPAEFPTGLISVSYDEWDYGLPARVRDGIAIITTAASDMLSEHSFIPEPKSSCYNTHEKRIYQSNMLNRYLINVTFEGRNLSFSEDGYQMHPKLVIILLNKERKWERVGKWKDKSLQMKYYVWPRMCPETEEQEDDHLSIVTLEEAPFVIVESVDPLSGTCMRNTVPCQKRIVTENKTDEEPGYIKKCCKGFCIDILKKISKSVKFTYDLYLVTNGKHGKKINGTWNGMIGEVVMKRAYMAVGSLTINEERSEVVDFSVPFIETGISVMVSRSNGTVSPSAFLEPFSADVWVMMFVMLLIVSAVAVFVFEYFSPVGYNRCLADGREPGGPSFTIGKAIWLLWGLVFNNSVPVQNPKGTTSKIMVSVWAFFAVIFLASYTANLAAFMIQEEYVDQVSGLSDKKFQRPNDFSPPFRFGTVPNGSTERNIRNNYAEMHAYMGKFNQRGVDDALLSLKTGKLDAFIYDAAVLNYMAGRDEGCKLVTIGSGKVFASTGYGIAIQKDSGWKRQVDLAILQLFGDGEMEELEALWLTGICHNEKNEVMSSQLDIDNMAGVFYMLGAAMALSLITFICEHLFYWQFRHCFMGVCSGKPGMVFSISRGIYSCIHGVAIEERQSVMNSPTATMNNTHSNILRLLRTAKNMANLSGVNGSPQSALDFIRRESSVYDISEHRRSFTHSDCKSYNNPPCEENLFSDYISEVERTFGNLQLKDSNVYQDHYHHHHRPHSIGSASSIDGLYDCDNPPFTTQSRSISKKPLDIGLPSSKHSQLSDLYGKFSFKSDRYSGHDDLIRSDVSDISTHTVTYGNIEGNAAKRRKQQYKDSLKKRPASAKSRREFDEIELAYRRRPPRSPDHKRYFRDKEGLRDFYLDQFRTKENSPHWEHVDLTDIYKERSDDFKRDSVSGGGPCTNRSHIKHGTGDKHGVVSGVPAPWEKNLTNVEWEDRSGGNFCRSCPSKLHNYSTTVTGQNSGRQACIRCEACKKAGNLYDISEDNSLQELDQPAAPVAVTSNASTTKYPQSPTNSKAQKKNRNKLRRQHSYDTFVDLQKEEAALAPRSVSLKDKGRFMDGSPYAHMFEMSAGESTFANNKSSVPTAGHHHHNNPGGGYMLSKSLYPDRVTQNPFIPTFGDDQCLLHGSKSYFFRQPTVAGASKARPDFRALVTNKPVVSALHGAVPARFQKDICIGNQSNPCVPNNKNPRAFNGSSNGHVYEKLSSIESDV", "experiment": "SAFETYscan Ion Channel NMDAR (1A/2B) Blocker", "format": "cell-based", "source_text": "as §1"}, "[3]": {"biological_target": "T3, BCL6-SMRT (NCOR2) corepressor protein-protein interaction (Homo sapiens, UniProt P41182)", "T3 construct": "DNA encoding full length BCL6 and SMRT; expressed in transfected cells; host or cells: HEK293T", "experiment": "NanoBRET cellular assay (HEK293T)", "format": "cell-based", "experimental": "Test compounds in DMSO or DMSO alone\nconcentration in 0.7% v/v DMSO final.\n(also called NCOR2) corepressor protein-protein interaction. DNA encoding full length BCL6 and SMRT\nfusion proteins BCL6-nanoLuc and SMRT-HaloTag, respectively. HEK293T cells were plated […] in T75\nAt the time of assay, compounds\ndispensing (Labcyte Inc.). Frozen transfected HEK293T cells were thawed, centrifuged and freezing\nDMSO final concentration.\nAfter a short centrifugation the\n(1st emission filter) / 450-80 nm (2nd emission filter). The % inhibition at each test concentration was\nsigmoidal four-parameter logistic fit equation. […]"}, "DRD2S": {"biological_target": "DRD2S (Homo sapiens, UniProt P14416)", "sequence (P14416 1-414 isoform P14416-2)": "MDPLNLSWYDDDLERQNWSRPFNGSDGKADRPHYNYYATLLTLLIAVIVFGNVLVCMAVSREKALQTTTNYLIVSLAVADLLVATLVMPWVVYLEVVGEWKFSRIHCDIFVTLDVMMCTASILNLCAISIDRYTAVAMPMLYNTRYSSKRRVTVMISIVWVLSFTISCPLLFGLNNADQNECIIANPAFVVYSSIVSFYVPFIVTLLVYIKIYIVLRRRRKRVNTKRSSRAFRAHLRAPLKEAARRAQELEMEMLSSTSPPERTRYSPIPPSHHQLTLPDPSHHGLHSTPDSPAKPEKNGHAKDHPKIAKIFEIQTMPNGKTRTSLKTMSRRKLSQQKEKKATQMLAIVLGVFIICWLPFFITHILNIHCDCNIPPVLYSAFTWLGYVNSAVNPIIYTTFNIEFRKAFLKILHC", "experiment": "SAFETYscan cAMP DRD2S Antagonist", "format": "cell-based", "source_text": "as §1"}, "ADORA2A": {"biological_target": "ADORA2A (Homo sapiens, UniProt P29274)", "sequence (P29274 whole entry)": "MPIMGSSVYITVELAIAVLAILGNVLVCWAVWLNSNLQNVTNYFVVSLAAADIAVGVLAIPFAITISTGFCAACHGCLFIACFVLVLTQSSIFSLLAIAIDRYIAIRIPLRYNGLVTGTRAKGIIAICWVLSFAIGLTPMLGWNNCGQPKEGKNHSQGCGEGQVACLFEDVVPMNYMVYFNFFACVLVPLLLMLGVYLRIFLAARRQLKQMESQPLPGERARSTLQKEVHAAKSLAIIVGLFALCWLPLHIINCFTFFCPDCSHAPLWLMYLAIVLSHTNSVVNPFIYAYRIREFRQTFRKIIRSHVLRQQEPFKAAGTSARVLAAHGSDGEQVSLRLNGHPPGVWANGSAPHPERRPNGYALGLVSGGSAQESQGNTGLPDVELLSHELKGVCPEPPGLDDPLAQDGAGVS", "experiment": "SAFETYscan Calcium Flux ADORA2A Antagonist", "format": "cell-based", "source_text": "as §1"}, "KvLQT1/minK": {"biological_target": "KvLQT1/minK (Homo sapiens, UniProt P51787)", "experiment": "SAFETYscan Ion Channel KvLQT1/minK Opener", "format": "cell-based", "source_text": "as §1"}, "CHRM3": {"biological_target": "CHRM3 (Homo sapiens, UniProt P20309)", "sequence (P20309 whole entry)": "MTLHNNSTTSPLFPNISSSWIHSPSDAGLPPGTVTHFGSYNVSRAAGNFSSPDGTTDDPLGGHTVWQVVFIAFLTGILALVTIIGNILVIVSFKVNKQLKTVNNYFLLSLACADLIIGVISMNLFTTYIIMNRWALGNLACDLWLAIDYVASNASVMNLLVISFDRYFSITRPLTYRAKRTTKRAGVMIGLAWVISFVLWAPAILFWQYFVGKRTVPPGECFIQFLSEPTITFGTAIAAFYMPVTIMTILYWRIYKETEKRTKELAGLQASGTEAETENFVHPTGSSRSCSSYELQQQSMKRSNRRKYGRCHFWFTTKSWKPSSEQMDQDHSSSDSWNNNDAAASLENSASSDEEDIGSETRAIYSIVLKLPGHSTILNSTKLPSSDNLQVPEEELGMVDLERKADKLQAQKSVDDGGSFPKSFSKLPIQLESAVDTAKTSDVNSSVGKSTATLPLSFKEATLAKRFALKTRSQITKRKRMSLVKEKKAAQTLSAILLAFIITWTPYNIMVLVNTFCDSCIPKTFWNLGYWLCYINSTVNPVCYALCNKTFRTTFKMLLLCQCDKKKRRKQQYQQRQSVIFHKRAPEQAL", "experiment": "SAFETYscan Calcium Flux CHRM3 Agonist", "format": "cell-based", "source_text": "as §1"}, "ADRA2A": {"biological_target": "T4, ADRA2A (Homo sapiens, UniProt P08913)", "T4 sequence (P08913 1-465)": "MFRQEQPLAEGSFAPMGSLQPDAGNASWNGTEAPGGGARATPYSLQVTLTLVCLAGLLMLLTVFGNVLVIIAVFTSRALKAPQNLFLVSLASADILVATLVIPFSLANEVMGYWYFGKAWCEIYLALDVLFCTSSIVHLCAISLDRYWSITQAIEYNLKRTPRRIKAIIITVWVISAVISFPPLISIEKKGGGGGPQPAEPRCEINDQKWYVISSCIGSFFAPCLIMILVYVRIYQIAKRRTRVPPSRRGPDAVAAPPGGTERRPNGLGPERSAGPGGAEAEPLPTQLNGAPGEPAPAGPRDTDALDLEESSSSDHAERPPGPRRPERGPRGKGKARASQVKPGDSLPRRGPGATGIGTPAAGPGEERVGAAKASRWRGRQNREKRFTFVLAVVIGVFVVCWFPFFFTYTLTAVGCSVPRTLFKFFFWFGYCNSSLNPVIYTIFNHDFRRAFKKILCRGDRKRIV", "experiment": "SAFETYscan cAMP ADRA2A Agonist", "format": "cell-based", "source_text": "as §1"}},
  "note": "“And” between values parts separate entries of the source, which are not always exact repeats. Identical values can stand only once. Like-named read-outs stand apart in the source and are kept apart here.",
  "data": [
    {"compound": "Cn1c(=O)c2c(c3cc(Nc4ccnc(F)c4Cl)ccc31)N[C@@H](C1CC1)C(F)(F)CO2", "note": "[compound 17, (S)-10-((3-chloro-2-fluoropyridin-4-yl)amino)-2-cyclopropyl-3,3-difluoro-7-methyl-1,2,3,4-tetrahydro-[1,4]oxazepino[2,3-c]quinolin-6(7H)-one]", "values": [
      {"measurement": "EC50", "setting": "CHRM1", "result": "> 10000", "unit": "nM"},
      {"measurement": "Emax", "setting": "CHRM1; CHRM1, Calcium Flux, Agonist, read-out: Max Response", "result": 1.44, "unit": "%"},
      {"measurement": "EC50", "setting": "HTR1B", "result": 9130, "unit": "nM"},
      {"measurement": "Hill", "setting": "HTR1B; HTR1B, cAMP, Agonist", "result": 0.76},
      {"measurement": "Emax", "setting": "HTR1B; HTR1B, cAMP, Agonist, read-out: Max Response", "result": 50.3, "unit": "%"},
      {"measurement": "EC50", "setting": "HTR2A [1]", "result": "> 10000", "unit": "nM"},
      {"measurement": "Emax", "setting": "HTR2A [1]; HTR2A, Calcium Flux, Agonist, read-out: Max Response", "result": 2.33, "unit": "%"},
      {"measurement": "IC50", "setting": "HTR2A [2]", "result": "> 10000", "unit": "nM"},
      {"measurement": "Emax", "setting": "HTR2A [2]; HTR2A, Calcium Flux, Antagonist, read-out: Max Response", "result": 5.28, "unit": "%"},
      {"measurement": "Emax", "setting": "VEGFR2; read-out: Max Response", "result": 0, "unit": "%"},
      {"measurement": "IC50", "setting": "VEGFR2; read-out: RC50 (IC50)", "result": "> 10000", "unit": "nM"},
      {"measurement": "IC50", "setting": "NMDAR (1A/2B)", "result": "> 10000", "unit": "nM"},
      {"measurement": "Emax", "setting": "NMDAR (1A/2B); NMDAR (1A/2B), Ion Channel, Blocker, read-out: Max Response", "result": 0, "unit": "%"},
      {"measurement": "IC90", "setting": "[3]; HEK-293T, Table S2, read-out: BCL6 NanoBRET IC90 individual replicates", "result": 140, "unit": "nM"},
      {"measurement": "calculated free (unbound) cellular IC90", "setting": "[3]; HEK-293T, calculated free cellular IC90 from NanoBRET assay", "result": 48, "unit": "nM"},
      {"measurement": "IC90", "setting": "[3]; HEK-293T, geometric mean of at least three replicates, read-out: NanoBRET IC90", "result": 140, "unit": "nM"},
      {"measurement": "BCL6 NanoBRET pIC50 mean", "setting": "[3]; Table S2", "result": 7.6643},
      {"measurement": "IC50", "setting": "[3]; geometric mean of at least three replicates, read-out: NanoBRET IC50", "result": 22, "unit": "nM"},
      {"measurement": "IC50", "setting": "[3]; single replicates, Table S2, listed as CCT374705, 17, read-out: BCL6 NanoBRET IC50 individual replicates", "result": "21.8 nM and 22.2 nM"},
      {"measurement": "IC50", "setting": "[3]; single replicates, Table S2, read-out: BCL6 NanoBRET IC50 individual replicates", "result": "25.1 nM and 17.3 nM and 24.3 nM and 18.4 nM and 20.9 nM and 24.2 nM and 77.1 nM and 15.6 nM and 11.1 nM and 15.4 nM and 40.7 nM and 25.3 nM and 23.2 nM and 13 nM and 32.6 nM and 29.5 nM and 10.1 nM and 12.1 nM and 44.2 nM and 19.7 nM and 14.6 nM and 25.2 nM"},
      {"measurement": "IC50", "setting": "[3]; supplement, read-out: BCL6 NanoBRET IC50 Geometric Mean", "result": 21.7, "unit": "nM"},
      {"measurement": "IC50", "setting": "DRD2S", "result": "> 10000", "unit": "nM"},
      {"measurement": "Emax", "setting": "DRD2S; DRD2S, cAMP, Antagonist, read-out: Max Response", "result": 0, "unit": "%"},
      {"measurement": "Emax", "setting": "ADORA2A; read-out: Max Response", "result": 10.4, "unit": "%"},
      {"measurement": "IC50", "setting": "ADORA2A; read-out: RC50 (IC50)", "result": "> 10000", "unit": "nM"},
      {"measurement": "Emax", "setting": "KvLQT1/minK; read-out: Max Response", "result": 1.07, "unit": "%"},
      {"measurement": "EC50", "setting": "KvLQT1/minK; read-out: RC50 (EC50)", "result": "> 10000", "unit": "nM"},
      {"measurement": "EC50", "setting": "CHRM3", "result": "> 10000", "unit": "nM"},
      {"measurement": "Emax", "setting": "CHRM3; CHRM3, Calcium Flux, Agonist, read-out: Max Response", "result": 0, "unit": "%"},
      {"measurement": "EC50", "setting": "ADRA2A", "result": "> 10000", "unit": "nM"},
      {"measurement": "Emax", "setting": "ADRA2A; ADRA2A, cAMP, Agonist, read-out: Max Response", "result": 38.9, "unit": "%"}
    ]}
  ]
}
